# Ends that are not written are not given here.
# System: cRBCs
# Assay: Haemolytic activity, chicken erythrocytes
# Format: cell-based
# Settings: 1 h at 37° C.
row,Substance,Toxicity Haemolysis (cRBCs)
1,"RFGRFLRKIRRFRPK [CMAP(1-15), RFGRFLRKIRRFRPK]",− (<25% dead cells)
2,RFGRFLRKIRRFRPKVTITIQ [CMAP1-21],− (<25% dead cells)
3,"RFGRFLRKIRRFRPKVTITIQGSARF-NH2 [CMAP26-NH2, reference compound]",+/− (>25% dead cells)

# System: hRBCs
# Assay: not given
# Settings: human erythrocytes, 1 h at 37° C.
row,Substance,Toxicity Haemolysis (hRBCs)
1,"FGRFLRKIRRFRPK [CMAP(2-15), FGRFLRKIRRFRPK]",−− (<5% dead cells)
2,"FLRKIRRFRPK [CMAP(5-15), FLRKIRRFRPK]",− (<25% dead cells)
3,"GRFLRKIRRFRPK [CMAP(3-15), GRFLRKIRRFRPK]",−− (<5% dead cells)
4,"RFGRFLRKIR [CMAP(l-l0), RFGRFLRKIR]",−− (<5% dead cells)
5,"RFGRFLRKIRR [CMAP(l-ll), RFGRFLRKIRR]",+/− (>25% dead cells)
6,"RFGRFLRKIRRF [CMAP(1-12), RFGRFLRKIRRF]",−− (<5% dead cells)
7,"RFGRFLRKIRRFR [CMAP(1-13), RFGRFLRKIRRFR]",−− (<5% dead cells)
8,"RFGRFLRKIRRFRPK [CMAP(1-15), RFGRFLRKIRRFRPK]",−− (<5% dead cells)
9,RFGRFLRKIRRFRPKVTITIQGSARF [CMAP26],++ (>75% dead cells)
10,"RFGRFLRKIRRFRPKVTITIQGSARFG [CMAP27, reference compound]",− (<25% dead cells)
11,"RFGRLLRKIRRFRPK [CMAP(1-15) (F5→L), RFGRLLRKIRRFRPK]",− (<25% dead cells)
12,"RFGRWLRKIRRFRPK [CMAP(1-15) (F5→W), RFGRWLRKIRRFRPK]",−− (<5% dead cells)
13,"RFLRKIRRFRPK [CMAP(4-15), RFLRKIRRFRPK]",+/− (>25% dead cells)
14,"RLGRFLRKIRRFRPK [CMAP(1-15) (F2→L), RLGRFLRKIRRFRPK]",− (<25% dead cells)
15,"RLGRLLRKIRRLRPK [CMAP(1-15) (3xF→L), RLGRLLRKIRRLRPK]",− (<25% dead cells)
16,"RWGRFLRKIRRFRPK [CMAP(1-15) (F2→W), RWGRFLRKIRRFRPK]",−− (<5% dead cells)
17,"RWGRWLRKIRRWRPK [CMAP(1-15) (3xF→W), RWGRWLRKIRRWRPK]",− (<25% dead cells)

# From US9006174B2 (priority 2009, dated 2015)
